Laboratory results taken from PMC4013053, “Identification of Selective Small Molecule Inhibitors of the Nucleotide-Binding Oligomerization Domain 1 (NOD1) Signaling Pathway” (PLoS ONE, 2014).

Key:
TLR4 = test system: TLR4; parameters: method as in PMID 22870324; settings: human lung microvascular endothelial cells; cited from earlier work
NOD2 = NOD2 (Homo sapiens, UniProt Q9HC29); test: MDP-stimulated IL-8 secretion in primary human monocytes; type: cell-based; parameters: Monocytes were purified from heparinized human whole blood; endogenous in cells; host or cells: primary human blood monocytes
Sequence of NOD2 (Q9HC29 whole entry): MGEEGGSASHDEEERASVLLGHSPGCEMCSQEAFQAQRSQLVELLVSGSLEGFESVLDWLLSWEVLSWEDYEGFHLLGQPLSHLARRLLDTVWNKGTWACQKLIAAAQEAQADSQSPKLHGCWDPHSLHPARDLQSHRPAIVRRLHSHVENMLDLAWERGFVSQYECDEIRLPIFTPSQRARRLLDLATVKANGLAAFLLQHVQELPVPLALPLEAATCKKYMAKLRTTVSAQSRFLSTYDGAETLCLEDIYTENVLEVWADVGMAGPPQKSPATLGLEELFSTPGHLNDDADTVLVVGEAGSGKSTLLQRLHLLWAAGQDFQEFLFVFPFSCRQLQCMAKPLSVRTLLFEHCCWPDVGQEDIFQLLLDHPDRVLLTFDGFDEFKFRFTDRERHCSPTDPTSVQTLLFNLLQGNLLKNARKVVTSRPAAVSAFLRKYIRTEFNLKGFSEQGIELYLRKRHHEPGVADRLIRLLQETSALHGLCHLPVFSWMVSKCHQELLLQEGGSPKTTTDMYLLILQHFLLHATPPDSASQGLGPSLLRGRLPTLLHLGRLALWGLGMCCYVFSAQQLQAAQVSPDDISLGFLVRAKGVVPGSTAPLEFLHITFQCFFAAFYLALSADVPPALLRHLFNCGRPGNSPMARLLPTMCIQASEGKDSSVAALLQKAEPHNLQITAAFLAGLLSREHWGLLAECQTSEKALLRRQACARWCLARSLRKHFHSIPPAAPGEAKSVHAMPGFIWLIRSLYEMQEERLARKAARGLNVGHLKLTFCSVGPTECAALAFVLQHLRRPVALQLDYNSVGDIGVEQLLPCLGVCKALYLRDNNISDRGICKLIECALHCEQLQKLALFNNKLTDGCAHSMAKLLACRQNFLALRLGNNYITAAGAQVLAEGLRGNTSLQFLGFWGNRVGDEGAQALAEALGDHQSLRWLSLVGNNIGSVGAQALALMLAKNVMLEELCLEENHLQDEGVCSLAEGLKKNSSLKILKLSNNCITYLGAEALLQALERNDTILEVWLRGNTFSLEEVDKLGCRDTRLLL
Procedure: Monocytes were purified from heparinized human whole blood by centrifugation on Ficoll (Histopaque 1077) followed by Percoll gradients. Monocyte purity was >95% by morphological assessment of Wright’s stained cytospins. Cells were seeded at 100,000 per well in 96-well plates in RPMI containing 10%HI-FBS, pre-incubated for 1 hour with compounds, and then stimulated with either 25 µg/mL Tri-DAP or 1 µg/mL MDP. The concentration of IL-8 in medium samples collected after 24-hour treatment was determined by HTRF whereas IL-1β, IL-6 and TNFα were measured using the MS6000 human pro-inflammatory-4 II tissue culture kit (Meso Scale Discovery).

Compound: Cc1nc2ccccc2c(=O)n1-c1ccc(Cl)c(NS(=O)(=O)c2ccccc2F)c1 [Compound 22]
- effect on IL-8 release, LPS stimulated (TLR4): no inhibitory effect
- effect on MDP induced IL-8 secretion (NOD2): did not inhibit
